For one data set, the target named is T1, human PDE IVA (Homo sapiens, UniProt P27815).
T1 construct: made in house; host or cells: yeast (inducible vector)
Description: Isolated recombinant human PDE IVA enzyme, inhibition of phosphodiesterase activity ([3H]-cAMP). The format is biochemical. As to conditions: 0.1 μM [3H]-cAMP, pH 7.5, 30° C. From the text: 1. Isolated Recombinant Human PDE IVA Enzyme
A gene encoding human PDE IV has been cloned from human monocytes (Livi, et al., 1990, Molecular and Cellular Biology, 10, 2678). Using similar procedures we have cloned human PDE IV genes from a number of sources including eosinophils, neutrophils, lymphocytes, monocytes, brain and neuronal tissues. These genes have been transfected into yeast using an inducible vector and various recombinant proteins have been expressed which have the biochemical characteristics of PDE IV (Beavo and Reifsnyder, 1990, TIPS, 11, 150). These recombinant enzymes, particularly the human eosinophil recombinant PDE IVA, have been used as the basis of a screen for potent, selective PDE IV inhibitors.
The enzymes were purified to isoenzyme homogeneity using standard chromatographic techniques.
Phosphodiesterase activity was assayed as follows. The reaction was conducted in 150 μl of standard mixture containing (final concentrations): 50 mM 2-[[tris(hydroxymethyl)methyl]amino]-1-ethanesulphonic acid (TES) --NaOH buffer (pH 7.5), 10 mM MgCl2, 0.1 μM [^3 H]-cAMP and vehicle or various concentrations of the test compounds. […] Recovery of [^3 H]-5'AMP was determined using the [^14 C]-5'AMP and all assays were conducted in the linear range of the reaction. Results were expressed as IC50 values.

Data set [1] is described as follows: Rat hepatocyte metabolism (compound remaining, mass spectroscopy). The format is in vitro ADME. As to conditions: rat hepatocytes, read-out: compound remaining at the end of the period. How it is done: (§1) 2. Rat Hepatocyte Metabolism
(§2) The quantity of compound remaining after a fixed period of time was then determined using mass spectroscopy.

The test system of another data set is rat hepatocytes. Described as above. The format is in vitro ADME. How it is done:
as §1, §2

Counter-ions that a name gives are not always drawn.

T1 sequence (P27815 whole entry): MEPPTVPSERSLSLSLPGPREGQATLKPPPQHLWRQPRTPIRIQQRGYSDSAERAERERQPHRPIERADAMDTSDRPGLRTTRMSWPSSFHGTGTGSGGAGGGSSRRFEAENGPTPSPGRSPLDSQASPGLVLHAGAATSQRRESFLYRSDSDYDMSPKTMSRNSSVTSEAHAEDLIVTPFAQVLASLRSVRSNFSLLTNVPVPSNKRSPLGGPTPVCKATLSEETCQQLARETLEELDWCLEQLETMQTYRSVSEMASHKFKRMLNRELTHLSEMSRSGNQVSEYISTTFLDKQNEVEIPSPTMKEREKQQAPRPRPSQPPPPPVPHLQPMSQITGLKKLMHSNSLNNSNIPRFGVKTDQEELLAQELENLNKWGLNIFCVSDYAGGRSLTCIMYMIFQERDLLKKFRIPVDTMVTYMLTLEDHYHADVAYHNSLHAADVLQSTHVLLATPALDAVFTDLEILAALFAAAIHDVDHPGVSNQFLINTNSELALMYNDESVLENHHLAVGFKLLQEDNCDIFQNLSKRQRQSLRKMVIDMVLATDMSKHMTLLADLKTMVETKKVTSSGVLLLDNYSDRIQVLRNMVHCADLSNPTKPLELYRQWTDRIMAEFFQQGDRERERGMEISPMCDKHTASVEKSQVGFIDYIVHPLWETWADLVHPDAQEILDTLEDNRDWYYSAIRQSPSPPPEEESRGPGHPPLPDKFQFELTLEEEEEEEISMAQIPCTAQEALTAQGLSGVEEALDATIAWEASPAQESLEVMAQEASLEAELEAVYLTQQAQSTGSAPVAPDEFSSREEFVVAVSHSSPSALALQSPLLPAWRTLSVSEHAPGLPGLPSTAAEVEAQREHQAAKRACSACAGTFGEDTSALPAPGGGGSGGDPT

In the case of `COc1ccc([C@H](Cc2ccncc2)c2cccc(NS(=O)(=O)c3ccccc3)c2)cc1OC1Cc2ccccc2C1` [Example 2, hydrochloride], at human PDE IVA, the IC50 was 0.002 µM. In addition, the fraction remaining at 3 h in data set [1] was at least 80%. The “metabolism after 3 h (in words)” value in the data set with rat hepatocytes is reported as “substantially unmetabolised”.

For the compound “(R)-N-[4-{1-(3-(2-Indanyloxy)-4-methoxyphenyl)-2-(4-pyridyl)ethyl}phenyl]-N'-ethylurea hydrochloride [Example 3]”, the half-inhibitory concentration (IC50) on human PDE IVA came out at 0.034 µM. Also, the “metabolism after 3 h (in words)” value in the data set with rat hepatocytes was “substantially unmetabolised”. The “compound remaining at the end of the period” value in the data set on rat hepatocytes (3 h) is on record as at least 80%.

The IC50 is the concentration needed to halve the response being measured. The term share remaining denotes what is left of the initial amount, in per cent.

These data come from patent US5891896A, “Tri-substituted phenyl derivatives useful as PDE IV inhibitors” (Celltech Therapeutics Ltd., priority 1995, dated 1999).
